Earlier results as cited in patent US11377636B2, “Endogenous retrovirus transcription as a marker for primate naive pluripotent stem cells” (Max-Delbrück-Centrum für Molekulare Medizin in der …, priority 2014, dated 2022).
Blank lines part the entries; values can stand above or below the compound they belong to.

Experiments:
PKCζ = biological target: T1, PKCζ (Homo sapiens, UniProt Q05513)
T1 sequence (Q05513 1-592): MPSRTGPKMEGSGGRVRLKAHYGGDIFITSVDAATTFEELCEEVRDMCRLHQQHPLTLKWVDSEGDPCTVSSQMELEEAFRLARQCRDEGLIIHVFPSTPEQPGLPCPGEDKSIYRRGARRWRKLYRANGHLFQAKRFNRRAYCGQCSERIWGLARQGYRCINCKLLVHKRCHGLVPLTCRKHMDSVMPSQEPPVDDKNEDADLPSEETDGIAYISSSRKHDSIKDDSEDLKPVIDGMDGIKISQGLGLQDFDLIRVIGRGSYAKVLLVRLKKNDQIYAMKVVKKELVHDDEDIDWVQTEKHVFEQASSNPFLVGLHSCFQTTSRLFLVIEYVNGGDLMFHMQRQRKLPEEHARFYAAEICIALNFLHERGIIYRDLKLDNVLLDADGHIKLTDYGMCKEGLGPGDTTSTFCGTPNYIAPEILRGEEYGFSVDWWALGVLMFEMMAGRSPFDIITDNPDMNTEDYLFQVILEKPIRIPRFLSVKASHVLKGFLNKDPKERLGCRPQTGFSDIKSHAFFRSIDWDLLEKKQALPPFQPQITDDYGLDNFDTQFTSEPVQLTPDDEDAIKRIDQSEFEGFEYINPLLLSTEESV

PKCβ = PKCβ (Homo sapiens, UniProt P05771)
PKCμ = biological target: T2, PKCμ (Homo sapiens, UniProt Q15139); details: does not effectively inhibit PKCμ
T2 sequence (Q15139 1-912): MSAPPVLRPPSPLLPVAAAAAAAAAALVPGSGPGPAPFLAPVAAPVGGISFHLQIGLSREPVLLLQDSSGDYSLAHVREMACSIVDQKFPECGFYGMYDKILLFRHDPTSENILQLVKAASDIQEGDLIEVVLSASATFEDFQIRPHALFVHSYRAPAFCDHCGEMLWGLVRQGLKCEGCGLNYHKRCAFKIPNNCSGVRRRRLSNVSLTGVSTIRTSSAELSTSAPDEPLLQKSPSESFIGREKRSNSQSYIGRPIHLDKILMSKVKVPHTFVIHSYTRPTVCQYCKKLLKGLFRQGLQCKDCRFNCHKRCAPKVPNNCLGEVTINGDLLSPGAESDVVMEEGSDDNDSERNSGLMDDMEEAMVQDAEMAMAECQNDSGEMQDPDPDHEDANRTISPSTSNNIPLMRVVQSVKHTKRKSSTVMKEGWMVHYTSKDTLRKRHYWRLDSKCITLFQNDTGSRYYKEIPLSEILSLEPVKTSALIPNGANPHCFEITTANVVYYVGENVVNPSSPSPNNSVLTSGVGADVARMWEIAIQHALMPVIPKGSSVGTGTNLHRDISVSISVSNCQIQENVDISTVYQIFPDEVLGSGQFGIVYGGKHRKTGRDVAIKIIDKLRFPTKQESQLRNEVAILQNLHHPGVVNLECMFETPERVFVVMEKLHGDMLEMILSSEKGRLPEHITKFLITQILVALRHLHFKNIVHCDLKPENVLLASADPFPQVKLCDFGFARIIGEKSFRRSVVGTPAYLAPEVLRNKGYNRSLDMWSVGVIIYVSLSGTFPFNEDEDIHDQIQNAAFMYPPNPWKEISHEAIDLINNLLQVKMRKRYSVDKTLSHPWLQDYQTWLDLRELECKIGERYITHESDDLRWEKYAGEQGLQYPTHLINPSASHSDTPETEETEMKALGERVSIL

PKCγ = PKCγ (Homo sapiens, UniProt P05129)
PKCα = PKCα (Homo sapiens, UniProt P17252)
PKCδ = PKCδ (Homo sapiens, UniProt Q05655)
GSK3β = GSK3β (Homo sapiens, UniProt P49841)
KDR = KDR (Homo sapiens, UniProt P35968)
Src kinase = Src kinase (Homo sapiens, UniProt P12931)

Chain of PKCδ (Q05655 whole entry): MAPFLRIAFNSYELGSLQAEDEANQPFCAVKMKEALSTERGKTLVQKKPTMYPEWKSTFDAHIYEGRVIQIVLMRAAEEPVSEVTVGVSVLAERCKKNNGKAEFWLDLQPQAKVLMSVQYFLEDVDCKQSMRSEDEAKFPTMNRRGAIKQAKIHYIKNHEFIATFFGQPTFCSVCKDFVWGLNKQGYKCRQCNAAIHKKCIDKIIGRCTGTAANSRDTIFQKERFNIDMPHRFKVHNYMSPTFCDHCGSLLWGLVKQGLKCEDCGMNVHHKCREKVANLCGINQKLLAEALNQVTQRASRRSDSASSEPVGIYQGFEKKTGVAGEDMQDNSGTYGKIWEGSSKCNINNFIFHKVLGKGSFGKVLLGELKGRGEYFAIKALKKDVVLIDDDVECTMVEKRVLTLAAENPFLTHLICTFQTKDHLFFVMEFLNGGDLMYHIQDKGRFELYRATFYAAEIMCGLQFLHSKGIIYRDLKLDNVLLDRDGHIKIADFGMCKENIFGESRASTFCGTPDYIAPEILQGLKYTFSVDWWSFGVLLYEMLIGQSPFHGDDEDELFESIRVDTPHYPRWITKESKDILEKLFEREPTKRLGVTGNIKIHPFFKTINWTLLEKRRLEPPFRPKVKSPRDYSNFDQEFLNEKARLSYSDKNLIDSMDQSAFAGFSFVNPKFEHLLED
Chain of PKCβ (P05771 whole entry, species assumed): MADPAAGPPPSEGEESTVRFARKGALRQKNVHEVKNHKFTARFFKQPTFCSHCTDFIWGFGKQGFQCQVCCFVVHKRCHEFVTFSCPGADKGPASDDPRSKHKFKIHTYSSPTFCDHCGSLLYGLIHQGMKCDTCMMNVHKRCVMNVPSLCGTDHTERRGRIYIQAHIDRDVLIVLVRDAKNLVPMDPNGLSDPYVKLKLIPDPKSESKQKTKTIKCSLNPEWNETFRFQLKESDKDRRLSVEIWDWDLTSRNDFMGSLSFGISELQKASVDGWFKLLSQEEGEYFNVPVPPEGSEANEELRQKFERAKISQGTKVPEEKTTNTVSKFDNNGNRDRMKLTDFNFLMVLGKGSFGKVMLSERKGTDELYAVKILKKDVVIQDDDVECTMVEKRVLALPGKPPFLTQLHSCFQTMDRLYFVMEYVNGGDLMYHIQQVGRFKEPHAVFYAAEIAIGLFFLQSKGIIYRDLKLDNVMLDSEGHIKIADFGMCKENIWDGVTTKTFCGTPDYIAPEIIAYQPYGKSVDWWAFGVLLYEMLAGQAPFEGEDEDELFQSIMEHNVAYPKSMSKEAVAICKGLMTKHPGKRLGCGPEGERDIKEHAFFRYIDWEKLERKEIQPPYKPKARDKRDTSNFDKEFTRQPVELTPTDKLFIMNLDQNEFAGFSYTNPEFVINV
Chain of KDR (P35968 20-1356, species assumed): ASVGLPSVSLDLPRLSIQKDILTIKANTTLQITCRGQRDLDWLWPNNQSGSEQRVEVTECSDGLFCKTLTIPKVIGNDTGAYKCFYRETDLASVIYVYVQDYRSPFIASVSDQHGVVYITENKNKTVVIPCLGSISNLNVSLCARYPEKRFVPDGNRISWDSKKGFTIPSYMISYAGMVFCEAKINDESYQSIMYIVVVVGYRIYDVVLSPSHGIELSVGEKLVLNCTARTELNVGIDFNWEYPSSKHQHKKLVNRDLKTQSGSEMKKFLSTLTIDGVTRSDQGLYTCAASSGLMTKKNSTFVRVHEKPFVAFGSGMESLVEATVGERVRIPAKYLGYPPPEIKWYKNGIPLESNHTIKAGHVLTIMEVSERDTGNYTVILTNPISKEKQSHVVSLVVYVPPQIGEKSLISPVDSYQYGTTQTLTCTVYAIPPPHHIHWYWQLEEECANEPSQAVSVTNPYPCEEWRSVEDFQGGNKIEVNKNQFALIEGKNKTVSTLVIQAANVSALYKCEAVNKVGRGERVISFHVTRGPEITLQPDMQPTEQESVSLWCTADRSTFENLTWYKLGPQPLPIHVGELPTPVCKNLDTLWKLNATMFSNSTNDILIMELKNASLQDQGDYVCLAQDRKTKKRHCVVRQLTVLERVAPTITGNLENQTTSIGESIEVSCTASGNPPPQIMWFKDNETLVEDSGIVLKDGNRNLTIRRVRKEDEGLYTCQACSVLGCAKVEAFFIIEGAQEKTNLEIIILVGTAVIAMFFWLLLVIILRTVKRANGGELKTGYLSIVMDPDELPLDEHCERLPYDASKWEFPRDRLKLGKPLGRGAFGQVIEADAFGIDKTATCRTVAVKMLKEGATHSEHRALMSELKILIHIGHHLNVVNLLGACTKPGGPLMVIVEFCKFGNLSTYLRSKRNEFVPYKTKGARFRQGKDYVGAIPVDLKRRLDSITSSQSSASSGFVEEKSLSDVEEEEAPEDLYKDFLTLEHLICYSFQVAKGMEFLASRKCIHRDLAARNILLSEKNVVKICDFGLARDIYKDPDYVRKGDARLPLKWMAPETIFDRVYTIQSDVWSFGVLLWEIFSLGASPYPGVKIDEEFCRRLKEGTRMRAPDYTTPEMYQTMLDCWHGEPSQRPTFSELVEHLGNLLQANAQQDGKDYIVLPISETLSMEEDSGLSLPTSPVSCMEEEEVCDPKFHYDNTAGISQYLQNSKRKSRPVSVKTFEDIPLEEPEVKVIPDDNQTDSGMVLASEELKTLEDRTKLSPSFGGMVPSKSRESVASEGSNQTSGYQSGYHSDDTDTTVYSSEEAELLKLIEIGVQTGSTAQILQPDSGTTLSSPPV
Chain of GSK3β (P49841 whole entry, species assumed): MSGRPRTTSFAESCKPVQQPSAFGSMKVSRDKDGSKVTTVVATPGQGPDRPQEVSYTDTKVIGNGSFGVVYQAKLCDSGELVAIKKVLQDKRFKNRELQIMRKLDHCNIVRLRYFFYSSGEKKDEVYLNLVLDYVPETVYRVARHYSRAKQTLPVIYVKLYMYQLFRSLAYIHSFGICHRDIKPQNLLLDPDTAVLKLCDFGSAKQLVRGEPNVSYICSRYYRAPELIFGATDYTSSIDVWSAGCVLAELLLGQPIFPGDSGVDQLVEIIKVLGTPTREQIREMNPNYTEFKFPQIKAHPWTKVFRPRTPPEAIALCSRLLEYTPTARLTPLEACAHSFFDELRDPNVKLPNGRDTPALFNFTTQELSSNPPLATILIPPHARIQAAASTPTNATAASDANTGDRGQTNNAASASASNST

Compound: CN1C(=O)[C@@]23C[C@]4([C@]56C[C@@]78SS[C@@](CO)(C(=O)N7[C@H]5Nc5ccccc56)N(C)C8=O)c5ccccc5N[C@@H]4N2C(=O)[C@]1(CO)SS3 [Chaetocin]
- cytotoxicity against HeLa cells IC50 (HeLa cells): 0.05 µg/mL

Compound: COc1ccc2c(c1)c(C1=C(c3c[nH]c4ccccc34)C(=O)NC1=O)cn2CCCN(C)C [Go6983]
- IC50 (PKCζ): 60 nM
- IC50 (PKCβ): 7 nM
- IC50 (PKCμ): 20000 nM
- IC50 (PKCγ): 6 nM
- IC50 (PKCα): 7 nM
- IC50 (PKCδ): 10 nM

- IC50 (GSK3β): 53 nM
Compound: Cc1[nH]c2ccccc2c1C1=C(NCCc2ccc(F)cc2)C(=O)N(C)C1=O [IM-12]

- inhibition on KDR (KDR): little inhibition
- IC50 (Src kinase): 6 nM
Compound: WH-4-023
